According to publication PMC12613848, “First in human phase 1 study of DT2216, a selective BCL-xL degrader, in patients with relapsed/refractory solid malignancies” (Journal of Hematology & Oncology, 2025):
“Also recorded” adds a separate entry of the source. Where two headings read alike, the source gives them in different places.

Assay: Plasma pharmacokinetics of DT2216 in patients, phase 1 dose escalation
Format: in vivo, human
Settings: for ArAUC0−24 (accumulation ratio) / Vd / clearance / half-life / AUC(0-t) / AUC(0-inf) / Cmax / Tmax: plasma; for Vd / clearance / half-life / AUC(0-t) / AUC(0-inf) / Cmax / Tmax: human; for AUC(0-inf): read-out: AUC0−∞; for Cmax: read-out: Cmax; for Tmax: median (min, max)
Method: Dose escalation consisted of the administration of DT2216 intravenously twice weekly at several different doses outlined in protocol attached. The starting dose was 0.04 mg/kg, established based on pre-clinical toxicity studies. Safety was evaluated using CTCAE version 5.0. The initial three dose levels enrolled one patient, following which for dose level 4 and 5, a 3 + 3 design was utilized following a 100% incremental dose increase for dose levels 2 to 5 until the first dose limiting toxicity (DLT) in cycle 1 was observed. Thereafter, a modified Fibonacci sequence was used to define dose escalation increments until the maximum tolerated dose (MTD) was reached as described in protocol. If no dose-limiting toxicity (DLT) was observed during the DLT monitoring period of first 28 days, the next patient was enrolled at the next higher dose level. Dose-limiting toxicities (DLTs) during the first treatment cycle were defined as any Grade 5 toxicity; Grade 4 neutropenia lasting > 7 days; febrile neutropenia; Grade 4 thrombocytopenia or Grade 3 thrombocytopenia with clinically significant hemorrhage or lasting ≥ 7 days; and Grade ≥ 3 non-hematologic toxicities, excluding nausea, vomiting, or diarrhea lasting ≤ 3 days or transient laboratory abnormalities resolving within 72 h. Hepatotoxicity meeting Hy’s law criteria was also considered a DLT. Transient Grade 3–4 electrolyte abnormalities resolving to ≤ Grade 2 within 72 h were not considered DLTs.
Patients were allowed a maximum of two intra-patient dose escalations. Patients received DT2216 by intravenous infusion on days 1 and 4 weekly for at least 4 weeks, with each cycle consisting of a 28-day cycle for a maximum duration of 1 year until disease progression, unacceptable toxicity, or other withdrawal criteria, as listed in the protocol. The extent of disease was evaluated using imaging studies and disease-appropriate tumor markers every 8 weeks from day 1 of the first cycle. RP2D was established based on MTD as well as other relevant data, including clinical signals of activity, PK, and PD data.
Premedication prior to each infusion was at the discretion of the investigator or according to institutional guidelines. Patient assessment and follow-up procedures can be found in the schedule of assessments in this study. The clinical response was evaluated using RECIST v1.1 per protocol. Blood samples were collected for PK analysis before and after post-infusion at defined intervals, along with platelet counts. Exploratory biomarkers include (but are not limited to) the assessment of BCL-XL and VHL levels in peripheral white blood cells (WBC).
Throughout the course of the dose escalation trial, only one dose-limiting toxicity was observed, with grade 4 thrombocytopenia at a dose level of 0.32 mg/kg. […] The pharmacokinetic parameters of DT2216 were determined in patients following doses on Cycle 1 Day 1 and Cycle 1 Day 22 (Tables 4 and 5). […] AUC0-∞ values ranged from 8650 to 72,300 ng · h/mL over the dose range of 0.04 mg/kg 0.4 mg/kg. […] The volume of distribution at steady state (Vss) was small (< 100 mL/kg) and consistent across the dose groups. Following repeated dosing, accumulation of DT2216 in plasma was not observed with twice weekly dosing, with accumulation ratio values ranging from 0.74 to 1.07 on Cycle 1 Day 22 ([…]) across the dose groups.

[1] = iv, 0.04 mg/kg, Cycle 1 Day 1, 0.04 mg/kg IV, mean (CV%), N = 1
[2] = iv, 0.04 mg/kg, Cycle 1 Day 22, 0.04 mg/kg IV BIW, mean (CV%), N = 1
[3] = iv, 0.08 mg/kg, Cycle 1 Day 1, 0.08 mg/kg IV, mean (CV%), N = 1
[4] = iv, 0.08 mg/kg, Cycle 1 Day 22, 0.08 mg/kg IV BIW, mean (CV%), N = 1
[5] = iv, 0.12 mg/kg, Cycle 1 Day 1, 0.12 mg/kg IV, mean (CV%), N = 1

## Cc1ncsc1-c1ccc([C@H](C)NC(=O)[C@@H]2C[C@@H](O)CN2C(=O)[C@@H](NC(=O)CCCCCC(=O)N2CCN(CC[C@H](CSc3ccccc3)Nc3ccc(S(=O)(=O)NC(=O)c4ccc(N5CCN(CC6=C(c7ccc(Cl)cc7)CCC(C)(C)C6)CC5)cc4)cc3S(=O)(=O)C(F)(F)F)CC2)C(C)(C)C)cc1 [DT2216]
0.04 to 0.4 mg/kg IV BIW
  dose proportionality of plasma exposure (AUC): dose proportional with no dose accumulation; also recorded: dose proportional increase in DT2216 exposure
0.4 BIW dose
  maximum concentration: 8590 ng/mL
Cycle 1 Day 22, 0.04 mg/kg IV BIW, mean (CV%), N = 1
  ArAUC0−24 (accumulation ratio): 0.90 (N = 1)
Cycle 1 Day 22, 0.08 mg/kg IV BIW, mean (CV%), N = 1
  ArAUC0−24 (accumulation ratio): 0.74 (N = 1)
Cycle 1 Day 22, 0.12 mg/kg IV BIW, mean (CV%), N = 1
  ArAUC0−24 (accumulation ratio): 1.07 (N = 1)
Cycle 1 Day 22, 0.24 mg/kg IV BIW, mean (CV%), N = 6
  ArAUC0−24 (accumulation ratio): 1.08 (11.6) (N = 6)
Cycle 1 Day 22, 0.32 mg/kg IV BIW, mean (CV%), N = 5
  ArAUC0−24 (accumulation ratio): 1.02 (6.7) (N = 5)
Cycle 1 Day 22, 0.4 mg/kg IV BIW, mean (CV%), N = 4
  ArAUC0−24 (accumulation ratio): 1.01 (8.7) (N = 4)
Based on pre-dose and 2-hour post infusion plasma concentrations
  steady state of plasma concentration: reached by at least Cycle 1, Day 15
intravenous, consistent across the dose groups, read-out: volume of distribution at steady state (Vss)
  Vd: < 0.1 L/kg
intravenous, over the dose range tested, read-out: clearance values
  clearance: 0.0683 to 0.132 mL/min/kg
intravenous, over the dose range tested, independent of dose, read-out: mean half-life
  half-life: 7.09 to 12.8 h
iv, 0.04 mg/kg, Cycle 1 Day 1, 0.04 mg/kg IV, mean (CV%), N = 1, read-out: AUC0−24
  AUC(0-t): 5920 ng·h/mL
[1]
  AUC(0-inf): 8650 ng·h/mL
  Cmax: 738 ng/mL
iv, 0.04 mg/kg, Cycle 1 Day 1, 0.04 mg/kg IV, mean (CV%), N = 1, read-out: AUClast
  AUC(0-t): 8470 ng·h/mL
iv, 0.04 mg/kg, Cycle 1 Day 1, 0.04 mg/kg IV, mean (CV%), N = 1, read-out: CL (converted)
  clearance: 0.077 mL/min/kg
iv, 0.04 mg/kg, Cycle 1 Day 1, 0.04 mg/kg IV, mean (CV%), N = 1, read-out: T½ (converted)
  half-life: 12.8 h
iv, 0.04 mg/kg, Cycle 1 Day 1, 0.04 mg/kg IV, mean (CV%), N = 1, read-out: Vdss
  Vd: 0.0776 L/kg
iv, 0.04 mg/kg, Cycle 1 Day 1, 0.04 mg/kg IV, N = 1
  Tmax: 0.75 h
iv, 0.04 mg/kg, Cycle 1 Day 22, 0.04 mg/kg IV BIW, mean (CV%), N = 1, read-out: AUC0−24
  AUC(0-t): 5350 ng·h/mL
[2]
  AUC(0-inf): 6230 ng·h/mL
  Cmax: 541 ng/mL
iv, 0.04 mg/kg, Cycle 1 Day 22, 0.04 mg/kg IV BIW, mean (CV%), N = 1, read-out: AUClast
  AUC(0-t): 5390 ng·h/mL
iv, 0.04 mg/kg, Cycle 1 Day 22, 0.04 mg/kg IV BIW, mean (CV%), N = 1, read-out: CL (converted)
  clearance: 0.107 mL/min/kg
iv, 0.04 mg/kg, Cycle 1 Day 22, 0.04 mg/kg IV BIW, mean (CV%), N = 1, read-out: T½ (converted)
  half-life: 8.18 h
iv, 0.04 mg/kg, Cycle 1 Day 22, 0.04 mg/kg IV BIW, mean (CV%), N = 1, read-out: Vdss
  Vd: 0.081 L/kg
iv, 0.04 mg/kg, Cycle 1 Day 22, 0.04 mg/kg IV BIW, N = 1
  Tmax: 2.5 h
iv, 0.08 mg/kg, Cycle 1 Day 1, 0.08 mg/kg IV, mean (CV%), N = 1, read-out: AUC0−24
  AUC(0-t): 13400 ng·h/mL
[3]
  AUC(0-inf): 19500 ng·h/mL
  Cmax: 1450 ng/mL
iv, 0.08 mg/kg, Cycle 1 Day 1, 0.08 mg/kg IV, mean (CV%), N = 1, read-out: AUClast
  AUC(0-t): 19100 ng·h/mL
iv, 0.08 mg/kg, Cycle 1 Day 1, 0.08 mg/kg IV, mean (CV%), N = 1, read-out: CL (converted)
  clearance: 0.0683 mL/min/kg
iv, 0.08 mg/kg, Cycle 1 Day 1, 0.08 mg/kg IV, mean (CV%), N = 1, read-out: T½ (converted)
  half-life: 12.5 h
iv, 0.08 mg/kg, Cycle 1 Day 1, 0.08 mg/kg IV, mean (CV%), N = 1, read-out: Vdss
  Vd: 0.07 L/kg
iv, 0.08 mg/kg, Cycle 1 Day 1, 0.08 mg/kg IV, N = 1
  Tmax: 1.5 h
iv, 0.08 mg/kg, Cycle 1 Day 22, 0.08 mg/kg IV BIW, mean (CV%), N = 1, read-out: AUC0−24
  AUC(0-t): 9840 ng·h/mL
[4]
  AUC(0-inf): 11700 ng·h/mL
  Cmax: 962 ng/mL
iv, 0.08 mg/kg, Cycle 1 Day 22, 0.08 mg/kg IV BIW, mean (CV%), N = 1, read-out: AUClast
  AUC(0-t): 9910 ng·h/mL
iv, 0.08 mg/kg, Cycle 1 Day 22, 0.08 mg/kg IV BIW, mean (CV%), N = 1, read-out: CL (converted)
  clearance: 0.114 mL/min/kg
iv, 0.08 mg/kg, Cycle 1 Day 22, 0.08 mg/kg IV BIW, mean (CV%), N = 1, read-out: T½ (converted)
  half-life: 8.63 h
iv, 0.08 mg/kg, Cycle 1 Day 22, 0.08 mg/kg IV BIW, mean (CV%), N = 1, read-out: Vdss
  Vd: 0.091 L/kg
iv, 0.08 mg/kg, Cycle 1 Day 22, 0.08 mg/kg IV BIW, N = 1
  Tmax: 2.5 h
iv, 0.12 mg/kg, Cycle 1 Day 1, 0.12 mg/kg IV, mean (CV%), N = 1, read-out: AUC0−24
  AUC(0-t): 12900 ng·h/mL
[5]
  AUC(0-inf): 18000 ng·h/mL
  Cmax: 3710 ng/mL
iv, 0.12 mg/kg, Cycle 1 Day 1, 0.12 mg/kg IV, mean (CV%), N = 1, read-out: AUClast
  AUC(0-t): 17900 ng·h/mL
iv, 0.12 mg/kg, Cycle 1 Day 1, 0.12 mg/kg IV, mean (CV%), N = 1, read-out: CL (converted)
  clearance: 0.111 mL/min/kg
iv, 0.12 mg/kg, Cycle 1 Day 1, 0.12 mg/kg IV, mean (CV%), N = 1, read-out: T½ (converted)
  half-life: 8.92 h
iv, 0.12 mg/kg, Cycle 1 Day 1, 0.12 mg/kg IV, mean (CV%), N = 1, read-out: Vdss
  Vd: 0.0557 L/kg
iv, 0.12 mg/kg, Cycle 1 Day 1, 0.12 mg/kg IV, N = 1
  Tmax: 0.75 h
iv, 0.12 mg/kg, Cycle 1 Day 22, 0.12 mg/kg IV BIW, mean (CV%), N = 1, read-out: AUC0−24
  AUC(0-t): 13900 ng·h/mL
iv, 0.12 mg/kg, Cycle 1 Day 22, 0.12 mg/kg IV BIW, mean (CV%), N = 1
  AUC(0-inf): 14500 ng·h/mL
iv, 0.12 mg/kg, Cycle 1 Day 22, 0.12 mg/kg IV BIW, mean (CV%), N = 1, read-out: AUClast
  AUC(0-t): 13900 ng·h/mL
